# Experimental data: the supplement of paper PMC6470124
# Experiments:
# [1] = absolute recovery over vacuum-assisted evaporative concentration; higher = better recovery; conditions: enrichment method: VEC
# Outline: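 Absolute recovery was calculated as (response ratio pre − unspiked)/(post − unspiked) × 100 from averages of ≥ 2 replicates. Influent (6 mL), effluent (15 mL), and surface and nanopure water (60 mL) samples were spiked with standards before concentration, after concentration, or not at all, at 200 ng/L for nanopure and surface water or 1000 ng/L for wastewater, with class- and compound-specific adjustments. Samples were evaporated at 55 °C and 20 mbar to about 0.3 mL, made up to 0.4 mL and centrifuged, then internal standards were added before LC-HRMS/MS analysis.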
# [2] = absolute recovery over mixed-bed multilayer solid-phase extraction; higher = better recovery; conditions: enrichment method: SPE
# Outline: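 Elution from a three-layer mixed-bed cartridge used basic followed by acidic ethyl acetate/methanol, after loading either 1000 mL of unfiltered nanopure water or 100–250 mL of wastewater that had been set to pH 6.5 and glass-fibre filtered. Standards went in before or after extraction, or were left out, at 200 ng/L (water) or 1000 ng/L (wastewater), with class exceptions. Internal standards were added afterwards, and measurement was by liquid chromatography with high-resolution tandem mass spectrometry in both ionisation modes. For absolute recovery, background-corrected response ratios of pre-spiked samples were compared with those of post-spiked samples and averaged over at least two replicates.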
# [3] = LC retention time (Atlantis T3, 5-95% MeOH gradient, 0.1% formic acid); higher = more retained / less polar
# Outline: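 Retention times refer to reference standards measured by liquid chromatography with high-resolution tandem mass spectrometry. Separation was on an Atlantis T3 C18 column (3 × 150 mm, 3 μm) at 0.3 mL/min with a 5 to 95% methanol gradient over 17.5 min, both solvents carrying 0.1% formic acid. Positive and negative electrospray were run separately on a QExactive Plus, and TraceFinder peak integration (5 ppm tolerance, at least three points per peak) was reviewed by hand.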
absolute recovery ([1]; wastewater effluent) [%],absolute recovery ([2]; nanopure water) [%],absolute recovery ([2]; surface water) [%],absolute recovery ([2]; wastewater effluent) [%],LC retention time [3] [min],SMILES,absolute recovery ([1]; wastewater influent) [%],absolute recovery ([2]; wastewater influent) [%]
105,70,86.7,81,22.5,CC(C)OC(=O)C(C)(C)Oc1ccc(C(=O)c2ccc(Cl)cc2)cc1 [Fenofibrat],98.6,78.4
106,98.5,86,82.7,20.8,CC(C)(Oc1ccc(C(=O)c2ccc(Cl)cc2)cc1)C(=O)[O-] [Fenofibric-acid],102,99
127,105,127,113,20.4,CCOC(=O)NCCOc1ccc(Oc2ccccc2)cc1 [Fenoxycarb],120,74.2
105,97,99.3,91.4,15.7,CC(C)(C(=O)[O-])c1ccc(C(O)CCC[NH+]2CCC(C(O)(c3ccccc3)c3ccccc3)CC2)cc1 (stereo not given) [Fexofenadin],101,101
105,100,92.8,96.9,14.2,OC(Cn1cncn1)(Cn1cncn1)c1ccc(F)cc1F [Fluconazol],105,96.1
112,89.4,84,96.3,21.4,CC(C)N(C(=O)CS(=O)(=O)[O-])c1ccc(F)cc1 [Flufenacet-ESA],109,96.4
106,93.7,91.2,93,19.1,CC(C)N(C(=O)C(=O)[O-])c1ccc(F)cc1 [Flufenacet-OXA],99.5,92.4
101,130,106,87.9,21.6,O=C([O-])c1ccccc1Nc1cccc(C(F)(F)F)c1 [Flufenamic-Acid],103,–
115,95.7,104,97.2,19.6,O=C(NCc1ncc(C(F)(F)F)cc1Cl)c1c(Cl)cccc1Cl [Fluopicolide],109,93.4
91.1,79.8,90.2,85.5,16.2,C[NH2+]CCC(Oc1ccc(C(F)(F)F)cc1)c1ccccc1 (stereo not given) [Fluoxetin],91.9,82.8
65.8,98.2,97.5,93.6,19.2,COC(=O)c1ccc(C(F)(F)F)nc1S(=O)(=O)[N-]C(=O)Nc1nc(OC)cc(OC)n1 [Flupyrsulfuron-methyl-],59.1,89.3
90.6,97.7,22,51.5,23.1,CCC(=O)OC(OP(=O)(CCCCc1ccccc1)CC(=O)N1CC(C2CCCCC2)CC1C(=O)[O-])C(C)C (stereo not given) [Fosinopril],36.6,96.2
101,77.3,–,78.8,16.2,NS(=O)(=O)c1cc(C(=O)[O-])c(NCc2ccco2)cc1Cl [Furosemid],97.9,87.3
61.8,103,104,86.1,22.2,CC1COC(=O)c2cc3c(cc21)C(C)(C)C(C)C3(C)C (stereo not given) [Galaxolidon],63.2,108
88.8,86.7,94.5,94.3,6.58,Nc1ccn(C2OC(CO)C(O)C2(F)F)c(=O)n1 (stereo not given) [Gemcitabin],12.8,91.1
93,99.2,103,99.5,17.9,O=c1c(-c2ccc(O)cc2)coc2cc([O-])cc(O)c12 [Genistein],89.9,93.3
104,96.7,98.2,89.1,10.2,NS(=O)(=O)c1cc2c(cc1Cl)NCNS2(=O)=O [Hydrochlorothiazid],100,91.7
102,86.5,80.2,80.9,18,CC12CCC(=O)C=C1CCC1C2C(O)CC2(C)C1CCC2(O)C(=O)CO (stereo not given) [Hydrocortison],57.5,94
98.5,84.5,–,118,21,CC(C)Cc1ccc(C(C)C(=O)[O-])cc1 (stereo not given) [Ibuprofen],–,–
22.9,90.1,82.6,79.4,20,C1=Cc2ccccc2Nc2ccccc21 [Iminostilben],37.9,89
104,93.9,95,91.2,20.8,COc1ccc2c(c1)c(CC(=O)[O-])c(C)n2C(=O)c1ccc(Cl)cc1 [Indomethacin],98.9,91.5
149,102,–,–,10.7,CC(=O)N(CC(O)CN(C(C)=O)c1c(I)c(C(=O)NCC(O)CO)c(I)c(C(=O)NCC(O)CO)c1I)c1c(I)c(C(=O)NCC(O)CO)c(I)c(C(=O)NCC(O)CO)c1I (stereo not given) [Iodixanol],–,–
116,107,96.8,101,19,COC(=O)c1ccc(I)cc1S(=O)(=O)[N-]C(=O)Nc1nc(C)nc(OC)n1 [Iodosulfuron-methyl],102,92.8
102,68.2,73.1,66.4,8.81,CC(=O)N(CC(O)CO)c1c(I)c(C(=O)NCC(O)CO)c(I)c(C(=O)NCC(O)CO)c1I (stereo not given) [Iohexol],98.3,56.8
109,73.5,67.8,66.5,8.92,CN(C(=O)CO)c1c(I)c(C(=O)NCC(O)CO)c(I)c(C(=O)NCC(O)CO)c1I (stereo not given) [Iomeprol],108,52.4
107,59.6,64.5,70,7.78,CC(O)C(=O)Nc1c(I)c(C(=O)NC(CO)CO)c(I)c(C(=O)NC(CO)CO)c1I (stereo not given) [Iopamidol],103,53

SMILES,absolute recovery ([1]; wastewater effluent) [%],absolute recovery ([2]; nanopure water) [%],absolute recovery ([2]; surface water) [%],absolute recovery ([2]; wastewater effluent) [%],LC retention time [3] [min],absolute recovery ([1]; wastewater influent) [%],absolute recovery ([2]; wastewater influent) [%]
CSC1=NC(C)(c2ccccc2)C(=O)N1Nc1ccccc1 (stereo not given) [Fenamidone],106,100,107,101,19.2,98.7,91.6
CC1(C(=O)Nc2ccc(O)c(Cl)c2Cl)CCCCC1 [Fenhexamid],92.1,102,–,–,20.1,96.3,97
CC(Cc1ccc(C(C)(C)C)cc1)C[NH+]1CCCCC1 (stereo not given) [Fenpropidin],146,–,107,94.1,16.4,46.3,67.3
N#Cc1nn(-c2c(Cl)cc(C(F)(F)F)cc2Cl)c(N)c1SC(F)(F)F [Fipronil-sulfid],118,105,107,89.4,20.5,137,121
N#Cc1nn(-c2c(Cl)cc(C(F)(F)F)cc2Cl)c(N)c1S(=O)C(F)(F)F (stereo not given) [Fipronil],103,99,95.7,94.2,20.4,98.5,88.5
N#CCNC(=O)c1cnccc1C(F)(F)F [Flonicamid],99.6,96.3,101,99.5,12.2,106,96
CC(Oc1ccc(Oc2ccc(C(F)(F)F)cn2)cc1)C(=O)[O-] (stereo not given) [Fluazifop],101,99.5,96.8,96.6,19.7,102,98
N#Cc1c[nH]cc1-c1cccc2c1OC(F)(F)O2 [Fludioxonil],116,101,108,105,19.5,108,77
CC(C)N(C(=O)COc1nnc(C(F)(F)F)s1)c1ccc(F)cc1 [Flufenacet],114,100,95.9,97.5,20.1,95.3,83.5
O=C(NCCc1ncc(C(F)(F)F)cc1Cl)c1ccccc1C(F)(F)F [Fluopyram],105,101,93.4,93,19.9,54.9,102
CON=C(C1=NOCCO1)c1ccccc1Oc1ncnc(Oc2ccccc2Cl)c1F [Fluoxastrobin],94.1,97.5,80.2,90.4,19.8,112,83
O=C1C(Cl)C(CCl)CN1c1cccc(C(F)(F)F)c1 (stereo not given) [Flurochloridon],92,98.1,104,106,19.9,60.5,98
Nc1c(Cl)c(F)nc(OCC(=O)[O-])c1Cl [Fluroxypyr (free acid)],104,97,95.8,91.7,17.1,95.6,89.2
C[Si](Cn1cncn1)(c1ccc(F)cc1)c1ccc(F)cc1 [Flusilazol],114,103,–,99.5,20.4,107,82.4
CC(C)Oc1cccc(NC(=O)c2ccccc2C(F)(F)F)c1 [Flutolanil],94,104,104,95.7,19.5,103,98
[NH3+]CC1(CC(=O)[O-])CCCCC1 [Gabapentin],99.5,20.3,–,–,10.4,98.3,–
CC(Oc1ccc(Oc2ncc(C(F)(F)F)cc2Cl)cc1)C(=O)[O-] (stereo not given) [Haloxyfop],102,84.3,73.9,84.4,21,95.4,95.4
CN(C)c1nc(=O)n(C2CCCCC2)c(=O)n1C [Hexazinon],106,96.4,93.7,94.3,17.2,92.6,88.8
COc1ccc2c3c1OC1C(=O)CCC4C(C2)[NH+](C)CCC314 (stereo not given) [Hydrocodone],103,82.5,89.4,93.1,9.79,100,89.3
CCCCNC(=O)OCC#CI [IPBC (=Iodocarb)],60.1,97.8,79.9,72.2,18.1,–,74.3
O=P1(NCCCl)OCCCN1CCCl (stereo not given) [Ifosfamid],102,109,99.4,92.9,15.5,99.2,89.1
COCc1cnc(C2=NC(C)(C(C)C)C(=O)N2)c(C(=O)[O-])c1 (stereo not given) [Imazamox],104,92.3,93.4,90.7,15.1,94.7,90.4
NC1=[NH+]CCN1Cc1ccc(Cl)nc1 [Imidacloprid-desnitro],107,113,110,104,8.99,103,106
O=C1NCCN1Cc1ccc(Cl)nc1 [Imidacloprid-urea],108,117,108,103,13.2,104,94.9
O=[N+]([O-])N=C1NCCN1Cc1ccc(Cl)nc1 [Imidacloprid],103,97.8,96.7,95.4,13.4,98.6,91.9
